In ChEMBL document CHEMBL4017480, “Discovery and optimization of selective FGFR4 inhibitors via scaffold hopping” (Bioorg Med Chem Lett, 2017):

Tests used:
[1] = molecular target: Fibroblast growth factor receptor 4 (Homo sapiens, UniProt P22455); test: Inhibition of recombinant human N-terminal His-tagged FGFR4 cytoplasmic domain […] expressed in baculovirus expression system using tyr 04 peptide as substrate measured within 90 mins by Z-LYTE assay
[2] = molecular target: Fibroblast growth factor receptor 1 (Homo sapiens, UniProt P11362); test: Inhibition of recombinant human His-tagged FGFR1 cytoplasmic domain (308 to 731 residues) expressed in baculovirus expression system using tyr 04 as substrate measured within 60 mins by Z-LYTE assay
Chain of Fibroblast growth factor receptor 1 (P11362 whole entry, the tested form may be a part): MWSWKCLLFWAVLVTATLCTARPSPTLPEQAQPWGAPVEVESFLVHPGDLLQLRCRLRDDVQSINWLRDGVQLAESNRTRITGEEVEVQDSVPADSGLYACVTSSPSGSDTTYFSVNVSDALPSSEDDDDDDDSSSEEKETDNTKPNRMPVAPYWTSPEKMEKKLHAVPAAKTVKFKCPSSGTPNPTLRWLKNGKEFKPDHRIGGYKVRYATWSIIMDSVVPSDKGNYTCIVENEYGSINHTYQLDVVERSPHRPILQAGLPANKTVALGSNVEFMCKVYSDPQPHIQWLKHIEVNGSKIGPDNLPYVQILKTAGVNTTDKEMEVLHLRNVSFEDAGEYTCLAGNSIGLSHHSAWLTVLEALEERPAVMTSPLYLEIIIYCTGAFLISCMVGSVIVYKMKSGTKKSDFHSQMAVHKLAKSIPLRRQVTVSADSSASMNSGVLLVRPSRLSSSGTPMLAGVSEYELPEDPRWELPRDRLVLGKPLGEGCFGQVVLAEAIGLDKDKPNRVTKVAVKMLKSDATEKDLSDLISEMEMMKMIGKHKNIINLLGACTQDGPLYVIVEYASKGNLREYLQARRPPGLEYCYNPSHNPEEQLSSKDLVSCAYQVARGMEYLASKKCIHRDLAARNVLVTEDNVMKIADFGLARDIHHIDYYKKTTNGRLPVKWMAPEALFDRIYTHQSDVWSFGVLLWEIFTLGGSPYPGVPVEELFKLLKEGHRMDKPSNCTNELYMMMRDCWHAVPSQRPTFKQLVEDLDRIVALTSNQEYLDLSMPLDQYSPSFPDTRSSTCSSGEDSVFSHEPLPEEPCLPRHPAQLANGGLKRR

[3] = Stability in mouse plasma assessed as compound remaining at 2 uM measured after 2 hrs by LC-MS/MS analysis; assay type: ADME, cell-free; conditions: read-out: Stability
[4] = Intrinsic clearance in mouse liver microsomes at 1 uM measured after 60 mins in presence of NADPH by LC-MS/MS analysis; assay type: ADME, microsome; conditions: read-out: CLH
[5] = Intrinsic clearance in human liver microsomes at 1 uM measured after 60 mins in presence of NADPH by LC-MS/MS analysis; assay type: ADME, microsome; conditions: read-out: CLH
[6] = Stability in human plasma assessed as compound remaining at 2 uM measured after 2 hrs by LC-MS/MS analysis; assay type: ADME, cell-free; conditions: read-out: Stability

Chain of Fibroblast growth factor receptor 4 (P22455 whole entry, the tested form may be a part): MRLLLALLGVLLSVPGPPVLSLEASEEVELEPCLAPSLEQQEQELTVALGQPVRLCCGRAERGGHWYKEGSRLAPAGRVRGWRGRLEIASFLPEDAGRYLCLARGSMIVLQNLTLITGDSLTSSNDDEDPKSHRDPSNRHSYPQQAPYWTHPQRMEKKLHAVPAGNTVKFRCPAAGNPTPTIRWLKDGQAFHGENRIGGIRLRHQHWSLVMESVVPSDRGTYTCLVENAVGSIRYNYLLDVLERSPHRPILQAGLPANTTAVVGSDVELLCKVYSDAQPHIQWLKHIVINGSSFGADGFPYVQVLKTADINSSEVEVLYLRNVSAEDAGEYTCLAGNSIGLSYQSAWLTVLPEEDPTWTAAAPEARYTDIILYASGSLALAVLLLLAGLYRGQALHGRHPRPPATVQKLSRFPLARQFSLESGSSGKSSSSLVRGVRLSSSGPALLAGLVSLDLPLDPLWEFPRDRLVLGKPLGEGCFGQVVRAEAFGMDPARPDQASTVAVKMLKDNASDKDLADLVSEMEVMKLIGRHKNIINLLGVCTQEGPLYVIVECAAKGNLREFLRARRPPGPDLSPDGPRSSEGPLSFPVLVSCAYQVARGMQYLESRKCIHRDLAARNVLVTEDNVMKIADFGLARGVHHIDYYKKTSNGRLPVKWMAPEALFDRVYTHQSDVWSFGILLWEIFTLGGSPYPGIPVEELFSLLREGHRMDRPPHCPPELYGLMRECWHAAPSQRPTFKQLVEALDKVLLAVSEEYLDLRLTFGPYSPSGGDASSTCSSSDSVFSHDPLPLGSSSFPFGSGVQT

SMILES: C=CC(=O)Nc1cccc(C)c1Nc1ncc(OC(C)c2c(Cl)c(OC)cc(OC)c2Cl)cn1 (configuration not stated)
- IC50 [1]: > 10 µM
- IC50 [2]: > 10 µM

SMILES: C=CC(=O)Nc1cc(N2CCN(C(C)=O)CC2)cc(C)c1Nc1ncc(OCc2c(F)c(OC)cc(OC)c2F)cn1
- remaining at 2 h, 2 µM [3]: 0.3%
- CLint scaled at 1 µM [4]: 220 mL/min/kg
- CLint scaled at 1 µM [5]: 265 mL/min/kg
- IC50 [2]: 9.5 µM

SMILES: C=CC(=O)Nc1cccc(C)c1Nc1ncc(OCc2cc(OC)cc(OC)c2)cn1
- IC50 [2]: > 10 µM

SMILES: C=C(C)C(=O)Nc1cc(N2CCN(CC)CC2)cc(C)c1Nc1ncc(OCc2c(F)c(OC)cc(OC)c2F)cn1
- remaining at 2 h, 2 µM [3]: 0.4%
- IC50 [2]: 4.8 µM

SMILES: C=CC(=O)N[C@@H]1COC[C@@H]1Nc1ncc(OCc2c(F)c(OC)cc(OC)c2F)cn1
- IC50 [1]: 3.5 µM
- IC50 [2]: 7.4 µM

SMILES: C=CC(=O)Nc1cc(N2CCN(CC)CC2)cc(C)c1Nc1ncc(OCc2c(F)c(OC)cc(OC)c2F)cn1
- remaining at 2 h, 2 µM [3]: 0.1%
- CLint scaled at 1 µM [4]: 180 mL/min/kg
- CLint scaled at 1 µM [5]: 120 mL/min/kg
- IC50 [2]: 2.9 µM

SMILES: C=CC(=O)Nc1cccc(C)c1Nc1ncc(OCc2c(Cl)c(OC)cc(OC)c2Cl)cn1
- remaining at 2 h, 2 µM [3]: 0.2%

SMILES: C=CC(=O)N[C@H]1CCCC[C@H]1Nc1ncc(OCc2c(F)c(OC)cc(OC)c2F)cn1 (racemic)
- remaining at 2 h, 2 µM [3]: 96%
- CLint scaled at 1 µM [4]: 2030 mL/min/kg
- remaining at 2 h, 2 µM [6]: 96%
- CLint scaled at 1 µM [5]: 154 mL/min/kg
- IC50 [2]: 3.3 µM

SMILES: C=CC(=O)Nc1ccccc1Nc1ncc(OCc2c(F)c(OC)cc(OC)c2F)cn1
- IC50 [2]: 0.06 µM

SMILES: C=CC(=O)N[C@H]1CCOC[C@H]1Nc1ncc(OCc2c(F)c(OC)cc(OC)c2F)cn1
- remaining at 2 h, 2 µM [3]: 100%
- CLint scaled at 1 µM [4]: 564 mL/min/kg
- remaining at 2 h, 2 µM [6]: 90%
- CLint scaled at 1 µM [5]: 46 mL/min/kg
- IC50 [2]: > 10 µM
